This is an account of results in ChEMBL document CHEMBL1159339, “Oxygenated analogues of gorgosterol and ergosterol from the soft coral Capnella lacertiliensis” (2003).

The subject of assay [1] is Microbotryum violaceum. In words: Antimicrobial activity against Microbotryum violaceum at 10 ug. In kind it is functional. The settings on record: read-out: IZ.
The subject of assay [2] is Microbotryum violaceum. In words: Antimicrobial activity against Microbotryum violaceum at 20 ug. The assay is classed as functional. Particulars: read-out: IZ.
Assay [3] concerns Aspergillus pseudoglaucus. As to the kind of experiment: Antimicrobial activity against Eurotium repens at 20 ug. Particulars: read-out: IZ. In kind it is functional.
The subject of assay [4] is Microbotryum violaceum. As to the kind of experiment: Antimicrobial activity against Microbotryum violaceum at 25 ug. Particulars: read-out: IZ. The assay is classed as functional.
Assay [5] addresses Tyrosine-protein kinase Lck (Homo sapiens) (UniProt P06239). As to the kind of experiment: Inhibition of p56 LCK at 200 ug/ml. On the set-up: scale not given: the % may be the effect or the level left.
In assay [6] the test system is Aspergillus pseudoglaucus. As to the kind of experiment: Antimicrobial activity against Eurotium repens at 10 ug. Particulars: read-out: IZ. The assay is classed as functional.

Chain of Tyrosine-protein kinase Lck (Homo sapiens) (P06239 2-509 limits assumed): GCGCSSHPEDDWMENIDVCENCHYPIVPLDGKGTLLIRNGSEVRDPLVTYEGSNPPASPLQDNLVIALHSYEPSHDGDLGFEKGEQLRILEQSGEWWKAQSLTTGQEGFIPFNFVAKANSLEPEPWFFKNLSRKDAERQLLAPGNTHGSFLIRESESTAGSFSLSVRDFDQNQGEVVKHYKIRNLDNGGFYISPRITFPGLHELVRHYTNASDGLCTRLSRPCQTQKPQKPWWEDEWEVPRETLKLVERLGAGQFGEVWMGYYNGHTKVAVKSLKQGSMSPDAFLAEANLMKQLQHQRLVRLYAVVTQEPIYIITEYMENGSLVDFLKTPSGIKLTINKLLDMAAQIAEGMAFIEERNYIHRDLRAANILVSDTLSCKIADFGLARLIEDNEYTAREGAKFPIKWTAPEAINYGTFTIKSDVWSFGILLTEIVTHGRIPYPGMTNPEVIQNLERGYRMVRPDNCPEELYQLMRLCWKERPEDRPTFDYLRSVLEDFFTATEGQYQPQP

With `CC(=O)O[C@@H]1C[C@H]2[C@@H]([C@H](O)C=C3C[C@@H](O)CC[C@@]32CO)[C@@H]2CC[C@H]([C@H](C)[C@H]3C[C@]3(C)[C@H](C)C(C)C)[C@@]12C`, the zone of inhibition at 10 µg/disc with Microbotryum violaceum [1] came to 2 mm.

On to `CC(=O)O[C@@H]1C[C@H]2[C@@H]([C@H](O)C=C3C[C@@H](O)CC[C@@]32C)[C@@H]2CC[C@H]([C@H](C)[C@H]3C[C@]3(C)[C@H](C)C(C)C)[C@@]12C`, for which the zone of inhibition at 20 µg/disc in the assay with Microbotryum violaceum [2] is 1 mm; in assay [3], 2 mm.

With `CC(=O)O[C@@H]1[C@H](O)[C@H]2[C@@H](CC=C3C[C@@H](O)CC[C@@]32C)[C@@H]2CC(O)[C@H]([C@H](C)CC[C@H](C)C(C)C)[C@@]12C` (some centres undefined), in the assay on Microbotryum violaceum [4], the zone of inhibition at 25 µg/disc came out at 1 mm.

Consider `CC(=O)O[C@@H]1C[C@H]2[C@@H](CC=C3C[C@@H](O)CC[C@@]32C)[C@@H]2CC[C@H]([C@H](C)CC(O)[C@H](C)C(C)C)[C@@]12C` (some centres undefined), for which the zone of inhibition at 10 µg/disc in the assay with Microbotryum violaceum [1] came to 3 mm. Moreover, the Activity in assay [5] stood at 42%.

For `CC(=O)O[C@@H]1[C@H]2[C@@H](CC=C3C[C@@H](O)CC[C@@]32C)[C@@H]2CC(O)[C@H]([C@H](C)CC[C@H](C)C(C)C)[C@@]2(C)[C@@H]1O` (some centres undefined), the zone of inhibition at 10 µg/disc turned out to be 3 mm with Microbotryum violaceum [1] and 2 mm in assay [6]. For the same molecule, the Activity in assay [5] stood at 47%.
